# Measured values published in patent US6545167B1, “Simple and effective manufacturing process for large scale recovery of Nimbin, a Neem seed constituent” (Fortune Bio-Tech Limited, priority 2002, dated 2003).
# Columns and labels:
# [1] = tested on: several classes of insects (Lepidoptera, Coleoptera, Homoptera); assay: insecticidal action of Nimbin; type: in vivo; conditions: diamondback moth, imported cabbage worm, cabbage looper, tobacco budworm, Colorado potato beetle, green apple aphid, green peach aphid, potato leafhopper
# [2] = test study of pure Nimbin in humans: analgesic effects; type: in vivo; conditions: pure Nimbin consumed orally (10 mg/day)
# Description: (§1) For example, pure Nimbin has been consumed orally (10 mg/day) in a test study to observe therapeutic/pharmacological effects of the compound various systems/maladies in humans.
# benign tumors = assay: systemic administration of Nimbin: benign tumors; type: in vivo, humans
# Description: as §1
# skin = assay: topical administration of Nimbin: tone of the skin; type: in vivo, humans
smiles,measurement,setting,value
COC(=O)C[C@H]1[C@]2(C)C3=C(C)[C@H](c4ccoc4)C[C@H]3O[C@@H]2[C@H](OC(C)=O)[C@@H]2[C@]1(C)C(=O)C=C[C@@]2(C)C(=O)OC [Nimbin],insecticidal action,[1],broad spectrum insecticidal action
same,analgesic effects,[2],analgesic effects
same,action on benign tumors,benign tumors,regressive actions on benign tumors
same,effect on tone of the skin,skin,modulates the tone of the skin
